According to patent publication US8983257B2, “Therapeutic light delivery apparatus, method, and system” (Nomir Medical Technologies, Inc., priority 2002, dated 2015):
“And” between values parts separate entries of the source, which are not always exact repeats. Identical values can stand only once. “Also recorded” adds a separate entry of the source.

Columns and labels:
[1] = test system: MSSA colonies in the nares; experiment: Human study Part One: nasal colonization of MSSA, NOVEON laser alone, with H2O2 or with topical erythromycin; type: in vivo, Staphylococcus aureus; settings: patient 01-005, Laser/erythromycin arm
Procedure: (§1) This investigational protocol was an open-label study of subjects who are colonized with MRSA in the nares (nostril). The study was done in two parts.
(§2) In this human study, three arms were produced. […] This was done on day 1 and again on day three; and Arm #3: ⅓ of the subjects were treated with the laser and then a topical antibiotic three times a day for five days. Prior to enrollment in this study, prospective subjects met all of the following criteria: age≧18 years and ≦70 years of age; previous positive MRSA culture; negative urine pregnancy test or post-menopausal for one year; willing to comply with study requirements, including return visits and self-application of topical antibiotics; and willing to provide informed consent to participate. Prospective subjects were excluded from this study if any of the following criteria were met: pregnancy; patients who are severely immunocompromised (such as may occur in AIDS, renal transplant regimens, immunosuppressed states consequent to malignancy or agents used in rendering oncologic care, or who suffer from end stage renal disease); diabetic patients; allergy to antimicrobials being used in the study (group 3).
(§3) All participants underwent an initial quantitative assessment for nasal carriage of S. aureus, during their first visit. Each participant had the anterior nares (each nostril) sampled for culture with a circular movement (three rotations on each side) of a sterile wood applicator plain Rayon® tipped swab in each nostril and placed in a labeled tube. 2 ml of room temp phosphate buffered saline was placed in the tube after the removal of the swab (to completely cover the swab in the tube). Each swab was then placed back in the tube and the tube was then vortexed for 15 seconds to disperse isolates of MRSA and/or MSSA into the PBS solution. Aliquots of PBS from the tube were plated in the following manner: 100 μl from each tube was lawn plated in triplicate (3×) on selective Chromogenic MRSA And MSSA agar. Plates were placed in incubator within 30 minutes of the plating procedure, and colonies were counted manually, and recorded 18 hrs after plating.
(§4) On day one of the study, all subjects underwent this exact procedure in arms 1 and 2 of the study two minutes before the laser procedure. They again were sampled in the same manner 2 minutes after the laser procedure. In the third arm of the study, they were swabbed two minutes before the procedure and the first antibiotic administration was completed after the laser therapy. The post/laser swab sample was taken for this arm 20 min later.
(§5) On day three of the study, all subjects from arms one two and three underwent the exact same procedures as day 1 of the study.
(§6) On day five all subjects from all arms underwent just one swabbing per nostril with the exact same sampling procedure one time.
(§7) 3% OTC hydrogen peroxide was applied to a cotton pledget for application to the subject prior to irradiation. This was inserted in the nose for 120 seconds and then removed. The subjects were then given doses of phototherapeutic near infrared radiation as described.
(§8) The subjects were first given doses of phototherapeutic near infrared radiation as described. […] The swab was inserted approximately 1 cm in to the anterior nares and rotated 360 degrees several times and removed. Patients were instructed to perform the exact application procedure 3 times a day for the remaining 5 days.
(§9) The NOVEON™ laser was used for two (2) six-minute treatments in each nostril on day (1) and day (3) of the study.
(§10) The laser was calibrated before the first treatment of the day. Intermittent temperature testing of the treatment site was performed on each subject using a noncontact infrared thermometer (Raytek Minitemp), 30-60 second intervals. If a temperature of 110 F degrees was reached, or the patient complained of pain, the laser treatment was interrupted and only resumed when the patient was comfortable.

[2] = test system: MRSA; experiment: MRSA CFU counts on agar with trimethoprim or erythromycin after sub-lethal NIMELS laser (Example VIII); type: cell-based, Staphylococcus aureus
Excerpt: The following illustrates the general antibacterial methods according to the invention, using a MRSA model for the in vitro Experiments V and VIII-XII.
a) μ1 is sub-lethal dosimetry from the NIMEL laser system on MRSA as a control and;

[3] = test system: nasal colonization of MSSA; experiment: Human study Part Two: nasal colonization of erythromycin resistant MSSA, NOVEON laser plus 2% erythromycin paste; type: in vivo, Staphylococcus aureus; settings: six patients, before phototherapy
Procedure: (§11) A second human study was conducted, to further evaluate the therapeutic potential of the NOVEON™ laser system, including its ability to reverse drug resistance in bacteria. The study was conducted in a similar manner as Part One, above. Outcome measures assessed included both laboratory study and clinical observations.
(§12) Positive anterior nares cultures were obtained in six patients (12 nostrils) having nasal colonization of MRSA or MSSA, before initiating bacterial photodamage through doses of phototherapeutic near infrared radiation.
(§13) The swab was inserted approximately 1 cm in to the anterior nares of the subject, rotated 360 degrees several times and removed.
(§14) The laser was calibrated before the first treatment of the day and between each patient. The NOVEON™ laser was used for four six-minute treatments of the nares at the following sets of dosimetries (Tables 45), which were evaluated for safety in previous studies. Utilizing a 10 cm flat-top diffuser, each patient underwent exposure with the Noveon for […] (energy density—207 J/cm2) to each anterior nostril on Day 1 and on Day 3. The treatment was divided into two parts, an approximately 3-minute exposure using a combination of 870 nm and 930 nm and an approximately 3-minute exposure of 930 nm alone. Temperatures of the nares were recorded every 30 seconds with an IR temperature thermometer.

[4] = test system: MRSA colonization in the nares; experiment: Human study Part One: nasal colonization of MRSA, NOVEON laser alone, with H2O2 or with topical erythromycin; type: in vivo, Staphylococcus aureus
Procedure: as §1, §2, §3, §4, §5, §6, §7, §8, §9, §10

[5] = test system: MRSA; experiment: MRSA/antimicrobial potentiation Experiment 4: CFU with or without methicillin, penicillin G or erythromycin, groups A4 to F4; type: cell-based, Staphylococcus aureus; settings: for CFU: agar with 4 μg/ml erythromycin
Procedure: Two different laser dosages based on an effective dose established in previous experiments were used to treat a saline-suspension of logarithmically growing MRSA, labeled A4 to F4.
After 24 hrs of growth at 37° C. colonies were counted.

[6] = test system: nasal colonization of MRSA; experiment: Human study Part Two: nasal colonization of erythromycin resistant MRSA, NOVEON laser plus 2% erythromycin paste; type: in vivo, Staphylococcus aureus; settings: six patients, before phototherapy
Procedure: as §11, §12, §13, §14

[7] = patient 01-005, Laser/erythromycin arm, 2% erythromycin paste 3 times a day

CC[C@H]1OC(=O)[C@H](C)[C@@H](O[C@H]2C[C@@](C)(OC)[C@@H](O)[C@H](C)O2)[C@H](C)[C@@H](O[C@@H]2O[C@H](C)C[C@H](N(C)C)[C@H]2O)[C@](C)(O)C[C@@H](C)C(=O)[C@H](C)[C@@H](O)[C@]1(C)O [Erythromycin]
outcome on MSSA colonization (in words) [1]: MRSA and MSSA eradication in both nostrils
MRSA colony count, EXPERIMENTAL, erythro 4 ug/ml ([2]; sub-lethal NIMELS laser, then plated on agar with erythromycin 4 ug/ml, plates B-4 1 to 5): 27 and 39 and 35 and 28
effect of sub-lethal NIMELS on antibiotic resistance of MRSA (in words) ([2]; sub-lethal laser parameters, erythromycin 4 ug/ml): resistance to erythromycin being reversed
erythromycin resistance of cultured MSSA at baseline [3]: resistant to erythromycin
outcome on MRSA colonization (in words) ([4]; patient 01-005, Laser/erythromycin arm): MRSA and MSSA eradication in both nostrils
reduction of bioburden, heavily colonized nostril [4, 7]: ≥ 3 log
reduction of bioburden, moderately colonized nostril [4, 7]: ≥ 2 log
sensitivity of the patient's MRSA colony to erythromycin before phototherapy ([4]; patient 01-005, prior to phototherapy): not sensitive to erythromycin prior to phototherapy
CFU ([5]; Group E4, Exp (laser treated), replicate plates 1-5): 0 CFU (3×) and 1 CFU (2×)
CFU ([5]; Group F4, Cont (no laser), replicate plates 1-5, 24 hrs 37° C.): 170 CFU
CFU ([5]; Group F4, Exp (laser treated), replicate plates 1-5): 2 CFU and 7 CFU and 6 CFU (2×) and 8 CFU
synergy or potentiation with NIMELS in growth inhibition of MRSA colonies (in words) ([5]; sub-lethal NIMELS dosimetry, bar chart figure): synergistic effects; also recorded: potentiated to a greater extent
reversal of MRSA resistance in vitro by dual wavelength NOVEON laser (in words) ([5]; temperature levels not lethal to the organism): successful reversal of MRSA resistance
erythromycin resistance of cultured MRSA at baseline [6]: resistant to erythromycin
